Results taken from ChEMBL document CHEMBL6153090.
Active and inactive are the calls of the source. The calls are words filed in the database; no cut-off is given here.

Key:
Histamine H1 receptor = Histamine H1 receptor (Homo sapiens, UniProt P35367); experiment: Binding affinity to H1 receptor (unknown origin) assessed as inhibition constant
[1] = target: Sigma intracellular receptor 2 (Homo sapiens, UniProt Q5BJF2); experiment: Displacement of [3H]-pentazocine from human Sigma 2 receptor at 10 uM by cell-based radioligand binding assay
Translocator protein = Translocator protein (Homo sapiens, UniProt P30536); experiment: Displacement of [3H]-PK11195 from human PBR receptor at 10 uM by cell-based radioligand binding assay
Cannabinoid receptor 1 [2] = target: T1, Cannabinoid receptor 1 (Homo sapiens, UniProt P21554); experiment: Agonist activity at CB1 receptor in human MDA-MB-231 cells by FLIPR assay; assay type: functional, cell-based
Cannabinoid receptor 1 [3] = target: T1, Cannabinoid receptor 1; experiment: Agonist activity at CB1 receptor in MDA-MB-231 cells at 100 to 300 uM by FLIPR assay; assay type: functional, cell-based; details: filed as agonist, dose 100-300 µM
Cannabinoid receptor 1 [4] = target: T1, Cannabinoid receptor 1; experiment: Agonist activity at CB1 receptor in MDA-MB-231 cells at 300 uM by FLIPR assay; assay type: functional, cell-based
[5] = target: 5-hydroxytryptamine receptor 2B (Homo sapiens, UniProt P41595); experiment: Displacement of [3H]-LSD from human 5-HT2B receptor at 10 uM by cell-based radioligand binding assay
D(2) dopamine receptor = D(2) dopamine receptor (Homo sapiens, UniProt P14416); experiment: Displacement of [3H]-N-Methylspiperone from human D2 receptor at 10 uM by cell-based radioligand binding assay
D(3) dopamine receptor = D(3) dopamine receptor (Homo sapiens, UniProt P35462); experiment: Displacement of [3H]-N-Methylspiperone from human D3 receptor at 10 uM by cell-based radioligand binding assay
D(4) dopamine receptor = target: T2, D(4) dopamine receptor (Homo sapiens, UniProt P21917); experiment: Displacement of [3H]-N-methylspiperone from human D4 receptor at 10 uM by cell-based radioligand binding assay
T2 sequence (P21917 whole entry): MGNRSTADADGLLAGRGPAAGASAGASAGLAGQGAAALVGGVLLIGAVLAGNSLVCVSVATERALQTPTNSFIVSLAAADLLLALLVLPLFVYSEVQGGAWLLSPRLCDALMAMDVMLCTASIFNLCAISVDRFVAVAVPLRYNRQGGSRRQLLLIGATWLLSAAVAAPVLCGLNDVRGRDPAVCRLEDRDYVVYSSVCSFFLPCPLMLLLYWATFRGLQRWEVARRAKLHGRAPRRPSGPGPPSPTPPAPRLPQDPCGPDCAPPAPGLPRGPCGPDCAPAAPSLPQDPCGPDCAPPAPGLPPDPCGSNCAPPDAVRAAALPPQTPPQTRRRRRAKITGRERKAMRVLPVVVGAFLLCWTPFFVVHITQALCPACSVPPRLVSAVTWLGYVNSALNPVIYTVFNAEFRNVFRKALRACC

[6] = target: Sigma non-opioid intracellular receptor 1 (Homo sapiens, UniProt Q99720); experiment: Displacement of [3H]-pentazocine from human Sigma 1 receptor at 10 uM by cell-based radioligand binding assay
[7] = target: Sodium-dependent noradrenaline transporter (Homo sapiens, UniProt P23975); experiment: Binding affinity to NET receptor (unknown origin) assessed as inhibition constant
[8] = target: Kappa-type opioid receptor (Homo sapiens, UniProt P41145); experiment: Displacement of [3H]-U69593 human KOR receptor at 10 uM by cell-based radioligand binding assay
[9] = Activation of GIRK channel (unknown origin) assessed as increase in fluorescence analysis; parameters: species or system Homo sapiens

T1 sequence (P21554 whole entry): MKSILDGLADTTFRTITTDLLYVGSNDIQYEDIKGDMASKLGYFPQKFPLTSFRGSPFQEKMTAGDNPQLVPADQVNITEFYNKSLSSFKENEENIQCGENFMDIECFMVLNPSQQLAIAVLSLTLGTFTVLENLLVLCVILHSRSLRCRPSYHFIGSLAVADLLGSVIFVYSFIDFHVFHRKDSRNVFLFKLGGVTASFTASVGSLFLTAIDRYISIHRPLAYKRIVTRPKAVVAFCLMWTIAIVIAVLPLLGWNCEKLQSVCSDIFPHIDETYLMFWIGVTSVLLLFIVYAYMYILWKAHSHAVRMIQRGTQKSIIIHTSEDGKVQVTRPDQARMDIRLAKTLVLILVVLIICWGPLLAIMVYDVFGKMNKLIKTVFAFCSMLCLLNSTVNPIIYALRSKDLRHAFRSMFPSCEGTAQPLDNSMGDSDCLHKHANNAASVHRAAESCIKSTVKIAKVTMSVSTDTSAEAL
Chain of 5-hydroxytryptamine receptor 2B (P41595 whole entry): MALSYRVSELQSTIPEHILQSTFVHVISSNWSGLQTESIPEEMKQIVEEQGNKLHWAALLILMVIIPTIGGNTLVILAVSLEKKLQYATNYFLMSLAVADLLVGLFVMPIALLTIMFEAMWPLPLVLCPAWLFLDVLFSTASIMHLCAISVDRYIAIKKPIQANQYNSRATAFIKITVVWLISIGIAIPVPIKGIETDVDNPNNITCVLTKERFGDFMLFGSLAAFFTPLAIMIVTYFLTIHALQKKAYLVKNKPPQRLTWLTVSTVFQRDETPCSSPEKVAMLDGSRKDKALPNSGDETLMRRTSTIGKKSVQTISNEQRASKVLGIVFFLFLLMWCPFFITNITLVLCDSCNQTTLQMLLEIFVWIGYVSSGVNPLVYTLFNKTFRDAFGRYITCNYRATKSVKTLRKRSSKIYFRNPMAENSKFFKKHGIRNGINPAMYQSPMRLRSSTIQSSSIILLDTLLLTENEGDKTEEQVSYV
Chain of D(2) dopamine receptor (P14416 whole entry): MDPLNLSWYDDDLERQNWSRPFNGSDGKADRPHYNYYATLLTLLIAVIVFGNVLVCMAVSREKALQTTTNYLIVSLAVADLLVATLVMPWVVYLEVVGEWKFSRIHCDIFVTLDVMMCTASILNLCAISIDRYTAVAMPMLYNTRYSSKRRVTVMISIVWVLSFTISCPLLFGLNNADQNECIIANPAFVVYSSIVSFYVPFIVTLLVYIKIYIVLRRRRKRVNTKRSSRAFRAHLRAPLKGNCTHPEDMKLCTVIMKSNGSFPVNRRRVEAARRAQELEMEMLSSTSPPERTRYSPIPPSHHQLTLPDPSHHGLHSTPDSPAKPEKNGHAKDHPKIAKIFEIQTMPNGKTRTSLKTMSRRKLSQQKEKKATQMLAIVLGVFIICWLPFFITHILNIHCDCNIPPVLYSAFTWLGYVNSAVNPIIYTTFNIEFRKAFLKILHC
Chain of Sigma intracellular receptor 2 (Q5BJF2 whole entry): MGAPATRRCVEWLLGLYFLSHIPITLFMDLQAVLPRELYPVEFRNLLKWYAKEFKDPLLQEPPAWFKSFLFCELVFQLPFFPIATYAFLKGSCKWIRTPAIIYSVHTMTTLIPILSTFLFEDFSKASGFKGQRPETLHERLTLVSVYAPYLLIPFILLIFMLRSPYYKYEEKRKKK
Chain of Sigma non-opioid intracellular receptor 1 (Q99720 whole entry): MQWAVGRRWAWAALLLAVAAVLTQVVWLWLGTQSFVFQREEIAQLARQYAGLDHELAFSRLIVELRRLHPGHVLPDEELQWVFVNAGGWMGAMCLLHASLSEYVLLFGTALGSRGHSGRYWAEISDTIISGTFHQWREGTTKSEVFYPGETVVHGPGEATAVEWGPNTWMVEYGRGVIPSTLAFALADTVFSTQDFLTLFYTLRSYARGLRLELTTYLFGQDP
Chain of Translocator protein (P30536 whole entry): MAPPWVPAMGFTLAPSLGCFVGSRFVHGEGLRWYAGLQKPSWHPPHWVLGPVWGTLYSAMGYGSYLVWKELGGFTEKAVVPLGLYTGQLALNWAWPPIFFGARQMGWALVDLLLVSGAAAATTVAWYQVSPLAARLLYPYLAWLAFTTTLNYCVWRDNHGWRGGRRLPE
Chain of Kappa-type opioid receptor (P41145 whole entry): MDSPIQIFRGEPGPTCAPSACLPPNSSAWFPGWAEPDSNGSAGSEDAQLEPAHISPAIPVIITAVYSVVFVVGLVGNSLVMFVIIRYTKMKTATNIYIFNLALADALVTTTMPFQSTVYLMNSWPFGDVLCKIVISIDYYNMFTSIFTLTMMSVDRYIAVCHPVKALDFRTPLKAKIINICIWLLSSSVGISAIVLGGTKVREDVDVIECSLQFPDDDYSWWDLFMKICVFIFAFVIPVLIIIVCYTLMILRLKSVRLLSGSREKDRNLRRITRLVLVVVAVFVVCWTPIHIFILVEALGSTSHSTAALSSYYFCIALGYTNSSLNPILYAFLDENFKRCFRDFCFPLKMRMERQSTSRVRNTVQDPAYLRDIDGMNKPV
Chain of Histamine H1 receptor (P35367 whole entry): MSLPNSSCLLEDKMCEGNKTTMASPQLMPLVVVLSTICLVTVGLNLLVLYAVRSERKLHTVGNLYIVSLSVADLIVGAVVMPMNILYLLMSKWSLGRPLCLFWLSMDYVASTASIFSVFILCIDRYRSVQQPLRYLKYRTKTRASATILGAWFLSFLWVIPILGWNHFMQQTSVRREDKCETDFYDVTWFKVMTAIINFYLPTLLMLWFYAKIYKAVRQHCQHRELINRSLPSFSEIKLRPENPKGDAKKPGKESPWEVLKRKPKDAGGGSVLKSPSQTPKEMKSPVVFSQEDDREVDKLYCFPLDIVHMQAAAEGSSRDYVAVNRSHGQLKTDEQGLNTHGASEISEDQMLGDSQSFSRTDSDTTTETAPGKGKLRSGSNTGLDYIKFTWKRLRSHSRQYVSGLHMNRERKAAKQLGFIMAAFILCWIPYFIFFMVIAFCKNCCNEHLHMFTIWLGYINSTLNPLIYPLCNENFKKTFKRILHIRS
Chain of D(3) dopamine receptor (P35462 whole entry): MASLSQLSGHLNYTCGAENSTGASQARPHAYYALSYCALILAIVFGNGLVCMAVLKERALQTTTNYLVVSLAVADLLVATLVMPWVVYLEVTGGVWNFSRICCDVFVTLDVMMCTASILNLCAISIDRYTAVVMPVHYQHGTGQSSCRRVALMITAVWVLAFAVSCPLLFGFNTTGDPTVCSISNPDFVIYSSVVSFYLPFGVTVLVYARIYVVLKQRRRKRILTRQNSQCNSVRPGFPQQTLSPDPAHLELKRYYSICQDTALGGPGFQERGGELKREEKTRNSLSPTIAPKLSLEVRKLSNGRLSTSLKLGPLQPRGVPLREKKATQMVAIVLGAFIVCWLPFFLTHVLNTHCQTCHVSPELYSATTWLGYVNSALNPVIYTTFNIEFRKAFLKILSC
Chain of Sodium-dependent noradrenaline transporter (P23975 whole entry): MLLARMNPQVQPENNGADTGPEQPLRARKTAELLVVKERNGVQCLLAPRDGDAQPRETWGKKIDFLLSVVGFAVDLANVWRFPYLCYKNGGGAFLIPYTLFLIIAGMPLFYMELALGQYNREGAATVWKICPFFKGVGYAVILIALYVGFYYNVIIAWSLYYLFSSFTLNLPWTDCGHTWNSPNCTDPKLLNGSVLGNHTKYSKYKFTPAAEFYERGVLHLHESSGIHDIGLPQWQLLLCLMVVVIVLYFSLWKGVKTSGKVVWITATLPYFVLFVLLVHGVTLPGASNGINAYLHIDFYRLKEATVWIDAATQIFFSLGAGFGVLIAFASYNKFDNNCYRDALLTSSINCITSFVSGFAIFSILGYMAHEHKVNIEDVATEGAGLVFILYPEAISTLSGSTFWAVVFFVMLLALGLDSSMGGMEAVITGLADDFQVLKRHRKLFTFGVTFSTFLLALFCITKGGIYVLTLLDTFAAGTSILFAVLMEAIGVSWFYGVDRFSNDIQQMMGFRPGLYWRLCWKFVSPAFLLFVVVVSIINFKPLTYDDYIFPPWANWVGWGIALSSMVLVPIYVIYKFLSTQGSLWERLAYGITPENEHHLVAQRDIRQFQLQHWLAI

Compound | Ki [1] [µM] | Ki [5] [µM] | also measured
C=C(C)[C@@H]1CCC(C)=C[C@H]1c1c(OC)cc(CCCCC)cc1OCCCCOc1cc(CCCCC)cc(OC)c1[C@@H]1C=C(C)CC[C@H]1C(=C)C | – | – | Ki (Histamine H1 receptor): 0.6 µM
C=C(C)[C@@H]1CCC(C)=C[C@H]1c1c(OC)cc(CCCCC)cc1OCCCOc1cc(CCCCC)cc(OC)c1[C@@H]1C=C(C)CC[C@H]1C(=C)C | 3.4 | – | Ki (Translocator protein): 2.7 µM; EC50 (Cannabinoid receptor 1 [2]): 42.2 µM; Activity (Cannabinoid receptor 1 [3]): Active
C=C(C)[C@@H]1CCC(C)=C[C@H]1c1c(O)cc(CCCCC)cc1O | – | – | Activity (Cannabinoid receptor 1 [4]): inactive
C=C(C)[C@H]1CCC(C)=C[C@@H]1c1c(OC)cc(CCCCC)cc1OCCCCCCCCCCCCOc1cc(CCCCC)cc(OC)c1[C@H]1C=C(C)CC[C@@H]1C(=C)C | – | 6.6 | Ki (Translocator protein): 0.9 µM
C=C(C)[C@@H]1CCC(C)=C[C@H]1c1c(OC)cc(CCCCC)cc1OCCCCCOc1cc(CCCCC)cc(OC)c1[C@@H]1C=C(C)CC[C@H]1C(=C)C | – | – | EC50 (Cannabinoid receptor 1 [2]): 40 µM; Activity (Cannabinoid receptor 1 [3]): Active
C=C(C)[C@@H]1CCC(C)=C[C@H]1c1c(O)cc(CCCCC)c2c1OCC2 | – | 3.3 | Ki (D(2) dopamine receptor): 0.4 µM; Ki (D(3) dopamine receptor): 0.4 µM; Ki (D(4) dopamine receptor): 0.5 µM; Ki [6]: 1.8 µM; Ki [7]: 5.7 µM
C=C(C)[C@H]1CCC(C)=C[C@@H]1c1c(O)cc(CCCCC)cc1OCCCCCOc1cc(CCCCC)cc(O)c1[C@@H]1C=C(C)CC[C@H]1C(=C)C | 6.9 | 2.1 | –
C=C(C)[C@@H]1CCC(C)=C[C@H]1c1c(O)cc(CCCCC)cc1OCCCCCCCCCCCCOc1cc(CCCCC)cc(O)c1[C@@H]1C=C(C)CC[C@H]1C(=C)C | – | 2.4 | Ki (D(2) dopamine receptor): > 10 µM; Ki [8]: 1.7 µM
C=C(C)[C@H]1CCC(C)=C[C@@H]1c1c(O)cc(CCCCC)cc1OCCCCCCCCOc1cc(CCCCC)cc(O)c1[C@@H]1C=C(C)CC[C@H]1C(=C)C | 1.9 | 4.5 | Ki [6]: 1.9 µM
C=C(C)[C@H]1CCC(C)=C[C@@H]1c1c(O)cc(CCCCC)cc1OCCCCOc1cc(CCCCC)cc(O)c1[C@@H]1C=C(C)CC[C@H]1C(=C)C | 5.5 | – | –
Cc1c(C(=O)c2cccc3ccccc23)c2cccc3c2n1[C@H](CN1CCOCC1)CO3 [WIN-552122] | – | – | EC50 [9]: 13.1 µM
Cn1ccc2cc3c(cc21)CCN3C(=O)Nc1cccnc1 | – | 0.0047 | –
C=C(C)[C@H]1CCC(C)=C[C@@H]1c1c(O)cc(CCCCC)cc1OCCCCCCOc1cc(CCCCC)cc(O)c1[C@@H]1C=C(C)CC[C@H]1C(=C)C | 0.7 | – | –
C=C(C)[C@@H]1CCC(C)=C[C@H]1c1c(OC)cc(CCCCC)cc1OCCOCCOCCOCCOc1cc(CCCCC)cc(OC)c1[C@@H]1C=C(C)CC[C@H]1C(=C)C | 8.1 | – | –
C=C(C)[C@H]1CCC(C)=C[C@@H]1c1c(OC)cc(CCCCC)cc1OCCCCCCCOc1cc(CCCCC)cc(OC)c1[C@H]1C=C(C)CC[C@@H]1C(=C)C | 4.7 | – | –
C=C(C)[C@@H]1CCC(C)=C[C@H]1c1c(O)cc(CCCCC)cc1OCCCCCCCOc1cc(CCCCC)cc(O)c1[C@@H]1C=C(C)CC[C@H]1C(=C)C | – | 1.8 | Ki (D(2) dopamine receptor): 0.6 µM
C=C(C)[C@@H]1CCC(C)=C[C@H]1c1c(OC)cc(CCCCC)cc1OCCCCCCOc1cc(CCCCC)cc(OC)c1[C@@H]1C=C(C)CC[C@H]1C(=C)C | 5.5 | 8.7 | –
C=C(C)[C@@H]1CCC(C)=C[C@H]1c1c(OC)cc(CCCCC)cc1OCCCCCCCCOc1cc(CCCCC)cc(OC)c1[C@@H]1C=C(C)CC[C@H]1C(=C)C | 2.7 | > 10 | –
C=C(C)[C@H]1CCC(C)=C[C@@H]1c1c(O)cc(CCCCC)cc1OCCOc1cc(CCCCC)cc(O)c1[C@@H]1C=C(C)CC[C@H]1C(=C)C | 0.8 | 1.7 | –
